Experimental data reported in paper PMC5867678 (Journal of Medicinal Chemistry, 2018).
Entries after “also recorded” stand apart in the source; their conditions may differ. Read-outs that look alike come from different tables or passages of the source.

Columns and labels:
[1] = tested on: Salmonella typhimurium (TA98 and TA100); test: Ames test (Mini-Ames reverse mutation screen); format: cell-based; conditions: strains TA98 and TA100, with or without S9
Description: Two strains of Salmonella typhimurium (TA98 and TA100) were employed, in the presence and absence of metabolic activation (rat liver S9). Positive controls (2-aminoanthracene, 2-nitrofluorene, and sodium azide) and a negative (DMSO solvent) control were included.

Mouse pharmacokinetics = conditions: in vivo; for AUC(0-t) / Cmax: female, BALB/c, 40 mg/kg; for AUC(0-t) / Cmax / bioavailability: po; for bioavailability: male
Rat pharmacokinetics = test: Rat pharmacokinetics; set-up: species or system Sprague-Dawley rats; conditions: male, Sprague-Dawley, in vivo, po, 40 mg/kg
Protocol: All studies were conducted in fasted animals (either male Sprague-Dawley rats or female golden Syrian hamsters) by WuXi AppTec (Shanghai) Co., Ltd. Intravenous dosing (at 1 mg/kg for rats and 2 mg/kg for hamsters) utilized a solution formulation of 20% NMP and 40% PEG-400 in citrate buffer (pH 3). In rats, oral dosing (at 40–50 mg/kg) was as a suspension in 0.08% Tween 80 and 0.5% CMC in water, whereas PEG-400 was the vehicle employed for oral dosing in hamsters (at 40–50 mg/kg). Plasma samples (at 0.083 for iv only, 0.25, 0.5, 1, 2, 4, 8, and 24 h) were analyzed by LC–MS/MS, and the PK parameters were calculated using Phoenix WinNonlin software (version 6.3).

[2] = Permeability assay in MDCK-MDR1 cells; conditions: dog
[3] = Microsomal stability, human liver microsomes; format: in vitro ADME; conditions: pooled human liver microsomes; for remaining at 0.5 h, 0.5 μM: 30 min (data in parentheses)
[4] = Microsomal stability, CD-1 mouse liver microsomes; format: in vitro ADME; conditions: for remaining at 0.5 h, 0.5 μM: 30 min (data in parentheses)
Hamster pharmacokinetics = test: Hamster pharmacokinetics; set-up: species or system golden Syrian hamsters; conditions: female, golden Syrian, in vivo, po
[5] = human, in vivo; cited from earlier work
Caco-2 = tested on: Caco-2; set-up: method as in PMID 25261338; conditions: Caco-2 data; cited from earlier work
[6] = tested on: Salmonella typhimurium (TA98 and TA100); conditions: cited from earlier work
[7] = cited from earlier work

O=[N+]([O-])c1cn2c(n1)OC[C@H](Oc1ccc(OC(F)(F)F)cc1)C2 [R-6, (6R)-2-Nitro-6-[4-(trifluoromethoxy)phenoxy]-6,7-dihydro-5H-imidazo[2,1-b][1,3]oxazine]
mutagenic effect (Ames test) [1]: negative; also recorded: no ^d
AUC(0-t) (Mouse pharmacokinetics): 272 µg·h/mL
Cmax (Mouse pharmacokinetics): 21000 ng/mL
AUC(0-t) (Rat pharmacokinetics): 80.6 µg·h/mL
Cmax (Rat pharmacokinetics): 5200 ng/mL
Papp A→B at […], 2 µM [2]: 32.4 ×10⁻⁶ cm/s

O=[N+]([O-])c1cn2c(n1)OC[C@H](OCc1ccc(-c3ccc(OC(F)(F)F)cc3)cn1)C2 [R-84]
AUC(0-t) (Mouse pharmacokinetics): 211 µg·h/mL
Cmax (Mouse pharmacokinetics): 16000 ng/mL

O=[N+]([O-])c1cn2c(n1)OC[C@H](OCc1ccc(-c3ccc(OC(F)(F)F)cc3F)cn1)C2 [R-89]
AUC(0-t) (Mouse pharmacokinetics): 265 µg·h/mL
Cmax (Mouse pharmacokinetics): 32000 ng/mL

O=[N+]([O-])c1cn2c(n1)OC[C@H](OCc1ccc(-c3ccc(F)cc3F)cn1)C2 [R-96]
remaining at 1 h, 1 μM [3]: 57 to 59%
remaining at 1 h, 1 μM [4]: 57 to 59%
bioavailability (Hamster pharmacokinetics): 21 to 37%

O=[N+]([O-])c1cn2c(n1)OC[C@H](OCc1ccc(-c3ccc(F)cc3F)nc1)C2 [R-106]
bioavailability (Hamster pharmacokinetics): 21 to 37%

O=[N+]([O-])c1cn2c(n1)OC[C@H](Oc1ccc(C(F)(F)F)cn1)C2 [R-136, (6R)-2-Nitro-6-{[5-(trifluoromethyl)pyridin-2-yl]oxy}-6,7-dihydro-5H-imidazo[2,1-b][1,3]oxazine]
remaining at 1 h, 1 μM [3]: 90 to 92%
remaining at 1 h, 1 μM [4]: 90 to 92%
mutagenic effect (Ames test) [1]: positive

O=[N+]([O-])c1cn2c(n1)OC[C@@H](OCc1ccc(OC(F)(F)F)cc1)C2 [S-1, (6S)-2-nitro-6-{[4-(trifluoromethoxy)benzyl]oxy}-6,7-dihydro-5H-imidazo[2,1-b][1,3]oxazine]
half-life in clinical trials for TB [5]: 16 to 18 h

O=[N+]([O-])c1cn2c(n1)OC[C@@H](OCc1cccc(-c3ccc(OC(F)(F)F)cc3)n1)C2 [S-77]
remaining at 0.5 h, 0.5 μM [3]: > 70%
remaining at 0.5 h, 0.5 μM [4]: > 70%

O=[N+]([O-])c1cn2c(n1)OC[C@@H](OCc1cccc(-c3ccc(F)cc3)n1)C2 [S-81]
remaining at 0.5 h, 0.5 μM [3]: > 70%
remaining at 0.5 h, 0.5 μM [4]: > 70%

O=[N+]([O-])c1cn2c(n1)OC[C@@H](OCc1ccc(-c3ccc(OC(F)(F)F)cc3F)cn1)C2 [S-89]
remaining at 0.5 h, 0.5 μM [3]: > 70%
remaining at 0.5 h, 0.5 μM [4]: > 70%

O=[N+]([O-])c1cn2c(n1)OC[C@@H](OCc1ccc(-c3ccc(OC(F)(F)F)cc3Cl)cn1)C2 [S-91]
remaining at 0.5 h, 0.5 μM [3]: > 70%
remaining at 0.5 h, 0.5 μM [4]: > 70%

O=[N+]([O-])c1cn2c(n1)OC[C@@H](OCc1ccc(-c3ccc(OC(F)F)cc3)cn1)C2 [S-92]
remaining at 0.5 h, 0.5 μM [3]: > 70%
remaining at 0.5 h, 0.5 μM [4]: > 70%

C[C@]1(COc2ccc(OC(F)(F)F)cc2)Cn2cc([N+](=O)[O-])nc2O1 [compound 4]
permeability, Papp A to B (Caco-2): 22.6 ×10^–6 cm/s
permeability, Papp B to A (Caco-2): 24.7 ×10^–6 cm/s
mutagenic effect (Ames test) [6]: no
LogD (measured) [7]: 3.10

O=[N+]([O-])c1cn2c(n1)OCC(COc1ccc(OC(F)(F)F)cc1)C2 (stereo not drawn) [compound 24]
half-life (Mouse pharmacokinetics; Swiss albino, iv, 1 mg/kg): 2 h

O=[N+]([O-])c1cn2c(n1)OCC(COc1ccc(-c3ccc(OC(F)(F)F)cc3)nc1)C2 (stereo not drawn) [compound 116]
bioavailability (Mouse pharmacokinetics; Swiss albino): 11 to 15%

O=[N+]([O-])c1cn2c(n1)OCC(COc1ccc(-c3ccc(F)cc3)nc1)C2 (stereo not drawn) [compound 117]
bioavailability (Mouse pharmacokinetics; Swiss albino): 11 to 15%

CSc1ccc(OCc2ncc([N+](=O)[O-])n2C)cc1 [fexinidazole]
Ames test result [6]: positive
